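The compound was tested at five concentrations on cells cultured in 96-well plates, with a 48-hour exposure period. Here, GI50 denotes the concentration required for 50% inhibition of growth.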 Calls of active or inactive are those of the source. No stated cut-off is given here; in the data, active = GI50 up to about 1.1 µM and inactive = higher.
Key:
Assay in all cases: NCI anticancer screen, dose series, 48 h
[1] = test system: 786-0
[2] = test system: A498
[3] = test system: IGROV-1
[4] = test system: K562
[5] = test system: MCF7
[6] = test system: Malme-3M
[7] = test system: NCI-H226
[8] = test system: NCI-H23
[9] = test system: OVCAR-3
[10] = test system: OVCAR-5
[11] = test system: OVCAR-8
[12] = test system: PC-3
[13] = test system: RPMI-8226
[14] = test system: RXF 393
[15] = test system: SF-295
[16] = test system: SK-MEL-28
[17] = test system: SK-OV-3
[18] = test system: SN12C
[19] = test system: SW-620
[20] = test system: T47D

Structure (SMILES) | GI50 [1] | GI50 [2] | GI50 [3] | GI50 [4] | GI50 [5] | GI50 [6] | GI50 [7] | GI50 [8] | GI50 [9] | GI50 [10] | GI50 [11] | GI50 [12] | GI50 [13] | GI50 [14] | GI50 [15] | GI50 [16] | GI50 [17] | GI50 [18] | GI50 [19] | GI50 [20]
COc1cccc(NC(=O)CC(=O)NN)c1 | > 100 µM (inactive) | > 100 µM (inactive) | > 100 µM (inactive) | > 100 µM (inactive) | > 100 µM (inactive) | > 100 µM (inactive) | > 100 µM (inactive) | > 100 µM (inactive) | > 100 µM (inactive) | > 100 µM (inactive) | > 100 µM (inactive) | > 100 µM (inactive) | > 100 µM (inactive) | > 100 µM (inactive) | > 100 µM (inactive) | > 100 µM (inactive) | > 100 µM (inactive) | > 100 µM (inactive) | > 100 µM (inactive) | > 100 µM (inactive)
CC(C)(C)C(O)CC(O)(C(F)(F)F)C(F)(F)F (stereo not given) | > 100 µM (inactive) | > 100 µM (inactive) | > 100 µM (inactive) | > 100 µM (inactive) | > 100 µM (inactive) | > 100 µM (inactive) | > 100 µM (inactive) | > 100 µM (inactive) | > 100 µM (inactive) | > 100 µM (inactive) | > 100 µM (inactive) | > 100 µM (inactive) | > 100 µM (inactive) | > 100 µM (inactive) | > 100 µM (inactive) | > 100 µM (inactive) | > 100 µM (inactive) | > 100 µM (inactive) | > 100 µM (inactive) | > 100 µM (inactive)
O=C1C2=C(SCCS2)C(=O)c2c(Sc3ccc(Cl)cc3)c(Sc3ccc(Cl)cc3)c(Sc3ccc(Cl)cc3)c(Sc3ccc(Cl)cc3)c21 | 78.5 µM (inactive) | 29.2 µM (inactive) | 99.1 µM (inactive) | – | > 100 µM (inactive) | 20.2 µM (inactive) | 40.8 µM (inactive) | 74.3 µM (inactive) | > 100 µM (inactive) | > 100 µM (inactive) | > 100 µM (inactive) | > 100 µM (inactive) | 51.3 µM (inactive) | 27 µM (inactive) | 32.5 µM (inactive) | – | 94.6 µM (inactive) | > 100 µM (inactive) | > 100 µM (inactive) | > 100 µM (inactive)
CN(C)c1ccc(/C=C2\C[C@H]3[C@@H]4CC=C5C[C@@H](O)CC[C@]5(C)[C@H]4CC[C@]3(C)[C@H]2O)cc1 | 18.1 µM (inactive) | 17.2 µM (inactive) | 19.2 µM (inactive) | 28 µM (inactive) | 17.4 µM (inactive) | 19.9 µM (inactive) | 17.4 µM (inactive) | 15.9 µM (inactive) | 22.5 µM (inactive) | 17.3 µM (inactive) | 3.84 µM (inactive) | 13.1 µM (inactive) | 29.9 µM (inactive) | 25.5 µM (inactive) | 20 µM (inactive) | 20.4 µM (inactive) | 31.2 µM (inactive) | 12.8 µM (inactive) | 24.8 µM (inactive) | 23.3 µM (inactive)
COc1ccc(Nc2nc(N)c(C(=O)c3ccccc3)s2)cc1 | 0.0494 µM (active) | 5.66 µM (inactive) | 0.273 µM (active) | 0.0102 µM (active) | 0.54 µM (active) | 45.2 µM (inactive) | 0.0935 µM (active) | 0.232 µM (active) | 0.0607 µM (active) | 19.5 µM (inactive) | 0.139 µM (active) | 0.0396 µM (active) | 0.0681 µM (active) | 0.19 µM (active) | 0.0164 µM (active) | 44.4 µM (inactive) | 0.0865 µM (active) | 0.0811 µM (active) | 0.0197 µM (active) | 40.2 µM (inactive)
C=C(C)[C@H]1C=C[C@@H](OC(=O)c2cccnc2)[C@@]23CO[C@@](C)([C@H](OC(=O)c4cccnc4)[C@@]4(OC(C)=O)C[C@H](C)[C@H](OCCC)[C@@H]4[C@H]2OC(C)=O)[C@H]13 | > 15 µM (inactive) | > 15 µM (inactive) | > 15 µM (inactive) | 7.73 µM (inactive) | > 15 µM (inactive) | – | > 15 µM (inactive) | > 15 µM (inactive) | > 15 µM (inactive) | > 15 µM (inactive) | > 15 µM (inactive) | 7.74 µM (inactive) | 9.95 µM (inactive) | > 15 µM (inactive) | 13.4 µM (inactive) | – | > 15 µM (inactive) | > 15 µM (inactive) | > 15 µM (inactive) | > 15 µM (inactive)
COC(=O)[C@H]1ON2O[C@H](OC3CCCC[C@@H]3c3ccccc3)C[C@@H]3CC[C@H]1[C@@]32C (stereo not given in full) | > 100 µM (inactive) | > 100 µM (inactive) | > 100 µM (inactive) | > 100 µM (inactive) | 65.6 µM (inactive) | > 100 µM (inactive) | 49.4 µM (inactive) | > 100 µM (inactive) | – | > 100 µM (inactive) | > 100 µM (inactive) | 47.6 µM (inactive) | 69.7 µM (inactive) | 45.9 µM (inactive) | > 100 µM (inactive) | > 100 µM (inactive) | > 100 µM (inactive) | 31.6 µM (inactive) | > 100 µM (inactive) | 46.5 µM (inactive)
COc1ccc(/C=C/c2ccnc3ccccc23)c(OC)c1 | 9.25 µM (inactive) | 7.87 µM (inactive) | 7.87 µM (inactive) | 3.54 µM (inactive) | 3.07 µM (inactive) | 5.69 µM (inactive) | 4.51 µM (inactive) | – | > 10 µM (inactive) | > 10 µM (inactive) | 7.52 µM (inactive) | 8.38 µM (inactive) | 7.33 µM (inactive) | > 10 µM (inactive) | 6.18 µM (inactive) | > 10 µM (inactive) | > 10 µM (inactive) | > 10 µM (inactive) | 5.94 µM (inactive) | > 10 µM (inactive)
Cc1c2c(n(C)c1C)C(=O)C1C(C2=O)C2(C)c3ccccc3C1(C)c1ccccc12 (stereo not given) | > 100 µM (inactive) | > 100 µM (inactive) | > 100 µM (inactive) | > 100 µM (inactive) | > 100 µM (inactive) | > 100 µM (inactive) | > 100 µM (inactive) | > 100 µM (inactive) | > 100 µM (inactive) | > 100 µM (inactive) | > 100 µM (inactive) | > 100 µM (inactive) | > 100 µM (inactive) | > 100 µM (inactive) | > 100 µM (inactive) | > 100 µM (inactive) | > 100 µM (inactive) | – | > 100 µM (inactive) | > 100 µM (inactive)
Cc1[nH]c(-c2ccccc2)c2nc(N(C)C)oc(=O)c12 | > 100 µM (inactive) | > 100 µM (inactive) | > 100 µM (inactive) | > 100 µM (inactive) | > 100 µM (inactive) | > 100 µM (inactive) | > 100 µM (inactive) | > 100 µM (inactive) | – | > 100 µM (inactive) | > 100 µM (inactive) | > 100 µM (inactive) | > 100 µM (inactive) | > 100 µM (inactive) | > 100 µM (inactive) | > 100 µM (inactive) | > 100 µM (inactive) | > 100 µM (inactive) | > 100 µM (inactive) | > 100 µM (inactive)
CC(=O)OCC1OC(SC2=NC(=O)/C(=C/c3ccccc3)S2)C(OC(C)=O)C(OC(C)=O)C1OC(C)=O (stereo not given) | 16.9 µM (inactive) | 29 µM (inactive) | 35.8 µM (inactive) | – | 18.9 µM (inactive) | 23.7 µM (inactive) | 33.8 µM (inactive) | 52.5 µM (inactive) | 19.7 µM (inactive) | > 100 µM (inactive) | 14.6 µM (inactive) | 40.1 µM (inactive) | 24.4 µM (inactive) | 26 µM (inactive) | 62.8 µM (inactive) | 30.8 µM (inactive) | 45.7 µM (inactive) | 49.8 µM (inactive) | 23.8 µM (inactive) | 24.2 µM (inactive)
CCOC(=O)CCC(NC(=O)c1ccc(Oc2nc3c(N)cc(C(F)(F)F)cc3nc2-c2ccccc2)cc1)C(=O)OCC (stereo not given) | 3.42 µM (inactive) | > 35.5 µM (inactive) | 33.4 µM (inactive) | > 100 µM (inactive) | 37.1 µM (inactive) | 12.4 µM (inactive) | 2.76 µM (inactive) | 21.3 µM (inactive) | 3.53 µM (inactive) | – | 1.09 µM (active) | 8.32 µM (inactive) | > 45.9 µM (inactive) | 0.402 µM (active) | 11 µM (inactive) | > 100 µM (inactive) | 13.5 µM (inactive) | 45.9 µM (inactive) | > 100 µM (inactive) | 39.6 µM (inactive)
Cc1ccc(-c2ccc3c(c2)Sc2ccccc2O3)n1C | 0.553 µM (active) | 0.416 µM (active) | 0.232 µM (active) | 0.137 µM (active) | 0.324 µM (active) | 0.0984 µM (active) | 19.9 µM (inactive) | 0.908 µM (active) | 0.373 µM (active) | 0.809 µM (active) | 0.693 µM (active) | 0.348 µM (active) | 0.179 µM (active) | 0.283 µM (active) | 0.165 µM (active) | – | 0.536 µM (active) | 0.306 µM (active) | 0.264 µM (active) | > 100 µM (inactive)
CCOC(=O)[C@]12C(=C(c3ccccc3)O[C@H]3C=CCC[C@H]31)C(=O)C(=O)N2c1ccccc1 | > 100 µM (inactive) | > 100 µM (inactive) | – | 17.5 µM (inactive) | > 100 µM (inactive) | 65.5 µM (inactive) | – | > 100 µM (inactive) | > 100 µM (inactive) | > 100 µM (inactive) | 65.2 µM (inactive) | 58.2 µM (inactive) | 19.8 µM (inactive) | > 100 µM (inactive) | 98.4 µM (inactive) | – | > 100 µM (inactive) | > 100 µM (inactive) | – | > 100 µM (inactive)

Source: ChEMBL document CHEMBL1201862, “PubChem BioAssay data set” (2004)
